Target: T1, human full-length recombinant PKC βII (Homo sapiens, UniProt P05771)
T1 construct: Active human full-length recombinant PKC βII; purchased Invitrogen GmbH, Darmstadt, Germany
Experiment: Determination of PKC βII inhibition (Caliper mobility-shift kinase assay, phosphorylation of fluorescein peptide substrate)
Assay type: biochemical
Conditions: final compound concentration 1.14 µM (±0.15 µM); 60 min incubation at 32 °C
Protocol: Determination of PKC βII inhibition
PKC βII inhibition was determined according to the following protocol:
Active human full-length recombinant PKC βII and the peptide substrate, Fluorescein-RFARKGSLRQKNV, were purchased from Invitrogen GmbH, Darmstadt, Germany. Adenosine-5'-triphosphate (ATP), bovine serum albumine (BSA), dimethylsulphoxide (DMSO), 4-(2-hydroxyethyl)piperazine-1-ethanesulfonic acid (Hepes), Triton X-100, 1,2-Dioleoyl-sn-glycerol (DAG), L-α-Phosphatidyl-L-serine (PS), calcium chloride (CaCl2), and Pluronic F-68 were purchased from Sigma-Aldrich, Munich, Germany. Magnesium chloride, 1 M sodium hydroxide solution, 1M hydrochloric acid solution and EDTA were obtained from Merck Biosciences, Darmstadt, Germany.
Test compounds were diluted to three times the test concentration in buffer 1 (30 mM Hepes-NaOH, pH 7.4, 0.01 % Pluronic F-68 and 3 % (v/v) DMSO). The PKC βII enzyme was diluted to a concentration of 30 ng/ml in buffer 2 (30 mM Hepes-NaOH, pH 7.4, 15 mM MgCl2,150 µM CaCl2, 150 µg/ml PS, 60 µg/ml DAG, and 0.045 % (w/v) Triton X-100). The peptide substrate and ATP were diluted to concentrations of 3 µM and 120 µM, respectively, in buffer 2. Two µl of the compound solution were mixed with 2 µl of the diluted enzyme in a 384-well small volume microtiter plate (Greiner, Bio-One, Frickenhausen, Germany), and the kinase reaction was initiated by addition of 2 µl of the solution containing peptide substrate and ATP. After 60 min incubation at 32 °C, the reaction was stopped by addition of 20 µl of a solution containing 130 mM Hepes-NaOH, pH 7.4, 0.0195 % (v/v) Brij-35, 6.5 mM EDTA, 0.13 % chip coating reagent 3 (Caliper Lifescience Inc, Hopkinton, MA) and 6.5 % (v/v) DMSO. Phosphorylation of the substrate peptide was then detected on a Caliper 3000 instrument essentially as described by Pommereau et al (J. Biomol. Screening 2004, 9(5), 409-416). Separation conditions were as follows: Pressure -0.8 psi, upstream voltage - 3000 V, downstream voltage -800 V. Positive controls (buffer 1 instead of compound) and negative controls (buffer 1 instead of compound and buffer 2 instead of kinase solution) were run in parallel on each plate. Fractional turnover (R) was determined as the height of the peak of the phosphorylated peptide product divided by the sum of the unphosphorylated substrate and phosphorylated product peak heights. Percent-inhibition values for the test compounds were determined using the formula % Inhibition = 100*(1-(Rcompound-Rnegative control)/(Rpositive control-Rnegative control). [formula]
In the following table % inhibition values observed with example compounds at a final concentration of 1.14 µM (±0.15 µM) are listed: […]

T1 sequence (P05771 1-673 isoform P05771-2): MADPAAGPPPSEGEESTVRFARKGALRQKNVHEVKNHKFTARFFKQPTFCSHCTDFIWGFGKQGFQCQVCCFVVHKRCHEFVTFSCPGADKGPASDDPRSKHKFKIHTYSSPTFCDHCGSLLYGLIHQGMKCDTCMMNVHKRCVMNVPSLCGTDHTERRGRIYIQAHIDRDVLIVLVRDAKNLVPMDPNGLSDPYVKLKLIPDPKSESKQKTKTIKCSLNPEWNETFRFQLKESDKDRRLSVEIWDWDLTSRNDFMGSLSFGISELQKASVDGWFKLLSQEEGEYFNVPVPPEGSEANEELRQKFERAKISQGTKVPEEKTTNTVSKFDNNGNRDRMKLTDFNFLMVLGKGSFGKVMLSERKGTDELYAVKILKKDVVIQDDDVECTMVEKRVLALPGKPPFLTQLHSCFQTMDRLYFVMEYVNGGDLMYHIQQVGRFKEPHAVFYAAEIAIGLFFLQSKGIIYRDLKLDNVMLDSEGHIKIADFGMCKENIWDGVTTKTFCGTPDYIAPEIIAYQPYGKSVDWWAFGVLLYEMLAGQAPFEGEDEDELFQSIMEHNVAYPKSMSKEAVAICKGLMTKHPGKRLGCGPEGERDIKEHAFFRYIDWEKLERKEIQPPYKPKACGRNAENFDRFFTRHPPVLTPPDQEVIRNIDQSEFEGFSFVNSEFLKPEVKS

Row | Compound | inhibition at 1.14 µM [%]
1 | CN1Cc2cc(/C=C/c3n[nH]c4nc(-c5ccc(O)cc5)cc(C(=O)N5CCNCC5)c34)ccc2C1=O [Example 32, 5-{(E)-2-[6-(4-Hydroxy-phenyl)-4-(piperazine-1-carbonyl)-1H-py-razolo[3,4-b]pyri-din-3-yl]-vinyl}-2-methyl-2,3-di-hydro-isoindol-1-one] | 99
2 | O=C(c1cc(-c2ccc(O)cc2)nc2[nH]nc(/C=C/c3cccc(N4CCCC4)c3)c12)N1CCNCC1 [Example 28, {6-(4-Hydroxy-phenyl)-3-[(E)-2-(3-pyrrolidin-1-yl-phenyl)-vinyl]-1H-pyrazolo[3,4-b]pyridin-4-yl}-piperazin-1-yl-methanone] | 94
3 | Cc1cc(C)cc(/C=C/c2n[nH]c3nc(-c4ccc(O)cc4)cc(C(=O)N4CCNCC4)c23)c1 [Example 40, [3-[(E)-2-(3,5-Dimethylphenyl)-vinyl]-6-(4-hydroxy-phenyl)-1H-pyrazolo[3,4-b]pyridin-4-yl]-piperazin-1-yl-methanone] | 99
4 | O=C(c1cc(-c2ccc(O)cc2)nc2[nH]nc(/C=C/c3ccc(OC(F)(F)F)cc3)c12)N1CCNCC1 [Example 58, {6-(4-Hydroxyphenyl)-3-[(E)-2-(4-trifluorome-thoxy-phenyl)-vinyl]-1H-pyrazo-lo[3,4-b]pyridin-4-yl}-piperazin-1-yl-methanone] | 89
5 | O=C(c1cc(-c2ccc(O)cc2)nc2[nH]nc(/C=C/c3cc(Cl)cc(Cl)c3)c12)N1CCNCC1 [Example 70, [3-[(E)-2-(3,5-Dichloro-phenyl)-vinyl]-6-(4-hydroxy-phenyl)-1H-pyrazolo[3,4-b]pyridin-4-yl]-piperazin-1-yl-methanone] | 98
6 | CC1(NC(=O)c2cc(-c3ccc(O)cc3)nc3[nH]nc(/C=C/c4ccccc4)c23)CCNCC1 [Example 75, 6-(4-Hydroxy-phenyl)-3-((E)-styryl)-1H-pyra-zolo[3,4-b]-pyridine-4-car-boxylic acid (4-methyl-piperidin-4-yl)-amide] | 93
7 | O=C(c1cc(-c2ccc(O)cc2)nc2[nH]nc(/C=C/c3ccccc3)c12)N1CCC2(CCNC2)C1 (stereo not shown) [Example 78, (2,7-Diaza-spiro-[4.4]non-2-yl)-[6-(4-hydroxy-phenyl)-3-((E)-styryl)-1H-pyra-zolo[3,4-b]py-ridin-4-yl]-methanone] | 94
8 | CC(C)(O)C(=O)N1CCN(C(=O)c2cc(-c3ccc(O)cc3)nc3[nH]nc(/C=C/c4ccccc4)c23)CC1 [Example 86, 2-Hydroxy-1-{4-[6-(4-hydroxy-phenyl)-3-((E)-styryl)-1H-pyra-zolo[3,4-b]pyri-dine-4-carbonyl]-piperazin-1-yl}-2-methyl-propan-1-one] | 93
9 | O=C(c1cc(-c2ccc(O)cc2)nc2[nH]nc(/C=C/c3ccc(F)cc3Cl)c12)N1CCNCC1 [Example 52, [3-[(E)-2-(2-Chloro-4-fluorophenyl)-vinyl]-6-(4-hydroxy-phenyl)-1H-pyrazolo[3,4-b]pyridin-4-yl]-piperazin-1-yl-methanone] | 91
10 | Cc1ccc(C)c(/C=C/c2n[nH]c3nc(-c4ccc(O)cc4)cc(C(=O)N4CCNCC4)c23)c1 [Example 50, [3-[(E)-2-(2,5-Dimethylphenyl)-vinyl]-6-(4-hydroxy-phenyl)-1H-pyrazolo[3,4-b]pyridin-4-yl]-piperazin-1-yl-methanone] | 92
11 | O=C(c1ccc(/C=C/c2n[nH]c3nc(-c4ccc(O)cc4)cc(C(=O)N4CCNCC4)c23)cc1)N1CCCCC1 [Example 19, (6-(4-Hydroxy-phenyl)-3-{(E)-2-[4-(piperidine-1-carbonyl)-phenyl]-vinyl}-1Hpyrazolo[3,4-b]pyridin-4-yl)-piperazin-1-yl-methanone] | 99
12 | O=C(CN1CCOCC1)N1CCN(C(=O)c2cc(-c3ccc(O)cc3)nc3[nH]nc(/C=C/c4ccccc4)c23)CC1 [Example 81, 1-{4-[6-(4-Hydroxy-phenyl)-3-((E)-styryl)-1H-pyrazolo[3,4-b]-pyridine-4-car-bonyl]-piperazin-1-yl}-2-mor-pholin-4-yl-ethanone] | 45
13 | C[C@@H]1CN(C(=O)c2cc(-c3ccc(O)cc3)nc3[nH]nc(/C=C/c4ccccc4)c23)[C@@H](C)CN1 [Example 8, ((2S,5R)-2,5-Dimethyl-piperazin-1-yl)-[6-(4-hydroxy-phenyl)-3-((E)-styryl)-1H-pyrazolo[3,4-b]pyridin-4-yl]-methanone] | 97
14 | CS(=O)(=O)c1ccc(/C=C/c2n[nH]c3nc(-c4ccc(O)cc4)cc(C(=O)N4CCNCC4)c23)cc1 [Example 24, {6-(4-hydroxy-phenyl)-3-[(E)-2-(4-methanesulfonyl-phenyl)-vinyl]-1H-pyra-zolo[3,4-b]pyri-din-4-yl}-pipe-razin-1-yl-methanone] | 99

Further lines, results first:

Row | inhibition at 1.14 µM [%] | Compound
15 | 89 | COCCC(=O)N1CCN(C(=O)c2cc(-c3ccc(O)cc3)nc3[nH]nc(/C=C/c4ccccc4)c23)CC1 [Example 88, 1-{4-[6-(4-Hydroxy-phenyl)-3-((E)-styryl)-1H-pyrazolo[3,4-b]-pyridine-4-carbonyl]-piperazin-1-yl}-3-methoxy-propan-1-one]
16 | 60 | O=C(c1cc(-c2ccc(O)cc2)nc2[nH]nc(/C=C/c3ccccc3C(F)(F)F)c12)N1CCNCC1 [Example 68, {6-(4-Hydroxy-phenyl)-3-[(E)-2-(2-trifluoromethyl-phenyl)-vinyl]-1H-pyrazolo[3,4-b]pyridin-4-yl}-piperazin-1-yl-methanone]
17 | 97 | Cc1ccc(/C=C/c2n[nH]c3nc(-c4ccc(O)cc4)cc(C(=O)N4CCNCC4)c23)c(F)c1 [Example 63, [3-[(E)-2-(2-Fluoro-4-methyl-phenyl)-vinyl]-6-(4-hydroxy-phenyl)-1H-pyrazolo[3,4-b]pyridin-4-yl]-piperazin-1-yl-methanone]
18 | 27 | CN(C)C(=O)N1CCN(C(=O)c2cc(-c3ccc(O)cc3)nc3[nH]nc(/C=C/c4ccccc4)c23)CC1 [Example 74, 4-[6-(4-Hydroxy-phenyl)-3-((E)-styryl)-1H-pyrazolo[3,4-b]pyridine-4-carbonyl]-piperazine-1-carboxylic acid dimethylamide]
19 | 88 | Cc1ccc(/C=C/c2n[nH]c3nc(-c4ccc(O)cc4)cc(C(=O)N4CCNCC4)c23)c(C)c1 [Example 49, [3-[(E)-2-(2,4-Dimethylphenyl)-vinyl]-6-(4-hydroxy-phenyl)-1H-pyrazolo[3,4-b]pyridin-4-yl]-piperazin-1-yl-methanone]
20 | 66 | O=C(c1cc(-c2ccc(O)cc2)nc2[nH]nc(/C=C/c3ccc(C(F)(F)F)cc3)c12)N1CCNCC1 [Example 42, {6-(4-Hydroxy-phenyl)-3-[(E)-2-(4-trifluoromethylphenyl)-vinyl]-1 H-pyrazolo[3,4-b]pyridin-4-yl}-piperazin-1-yl-methanone]
21 | 98 | Cc1ccc(/C=C/c2n[nH]c3nc(-c4ccc(O)cc4)cc(C(=O)N4CCNCC4)c23)cc1 [Example 21, [6-(4-Hydroxy-phenyl)-3-((E)-2-p-tolyl-vinyl)-1H-pyrazolo[3,4-b]-pyridin-4-yl]-piperazin-1-yl-methanone]
22 | 26 | CCC(CC)C(=O)N1CCN(C(=O)c2cc(-c3ccc(O)cc3)nc3[nH]nc(/C=C/c4ccccc4)c23)CC1 [Example 80, 2-Ethyl-1-{4-[6-(4-hydroxy-phenyl)-3-((E)-styryl)-1H-pyra-zolo[3,4-b]pyri-dine-4-carbonyl]-piperazin-1-yl}-butan-1-one]

Reference: patent EP2567959B1, “6-(4-HYDROXY-PHENYL)-3-STYRYL-1H-PYRAZOLO[3,4-B]PYRIDINE-4-CARBOXYLIC ACID AMIDE DERIVATIVES AS KINASE INHIBITORS” (SANOFI, priority 2011, dated 2013)
